# According to ChEMBL document CHEMBL1201862, “PubChem BioAssay data set” (2004):
#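 How tested: cells in 96-well plates exposed to compound for 48 hours at five concentrations. GI50 marks 50% less growth.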 Activity calls are given as the source filed them. Rule as the data show it: active = GI50 up to about 1.1 µM and inactive = higher.
# Key:
# Assay in all cases: inhibition of tumour cell growth, NCI panel, 48 h
# [1] = test system: CCRF-CEM
# [2] = test system: COLO 205
# [3] = test system: EKVX
# [4] = test system: HCT-15
# [5] = test system: HOP-62
# [6] = test system: IGROV-1
# [7] = test system: K562
# [8] = test system: LXFL 529
# [9] = test system: Malme-3M
# [10] = test system: NCI-H522
# [11] = test system: RPMI-8226
# [12] = test system: RXF 393
# [13] = test system: SK-MEL-28
# [14] = test system: SK-OV-3
# [15] = test system: SNB-19
# [16] = test system: SNB-75
# [17] = test system: HCT-116
# [18] = test system: OVCAR-5
SMILES,GI50 [1],GI50 [2],GI50 [3],GI50 [4] [µM],GI50 [5],GI50 [6],GI50 [7],GI50 [8],GI50 [9],GI50 [10],GI50 [11],GI50 [12],GI50 [13],GI50 [14],GI50 [15],GI50 [16],GI50 [17],GI50 [18]
CCN(CC)C(=S)N/N=C(\C)c1ccccc1O,5 µM (inactive),40.9 µM (inactive),36.4 µM (inactive),3.72,34.6 µM (inactive),24.5 µM (inactive),0.0568 µM (active),13.5 µM (inactive),26.4 µM (inactive),8.57 µM (inactive),18.5 µM (inactive),25.6 µM (inactive),23.4 µM (inactive),33.7 µM (inactive),20.8 µM (inactive),44.2 µM (inactive),,
OCCN(CCO)c1cccc(N(CCO)CCO)c1,> 100 µM (inactive),> 100 µM (inactive),> 100 µM (inactive),> 100,> 100 µM (inactive),,> 100 µM (inactive),> 100 µM (inactive),,> 100 µM (inactive),> 100 µM (inactive),> 100 µM (inactive),> 100 µM (inactive),> 100 µM (inactive),39.2 µM (inactive),> 100 µM (inactive),> 100 µM (inactive),
NC(=O)c1ncn(C2OC(CO)C(O)C2O)c1O (stereo not drawn),> 100 µM (inactive),,> 100 µM (inactive),65.2,> 100 µM (inactive),> 100 µM (inactive),> 100 µM (inactive),> 100 µM (inactive),> 100 µM (inactive),,> 100 µM (inactive),> 100 µM (inactive),> 100 µM (inactive),,> 100 µM (inactive),> 100 µM (inactive),72.6 µM (inactive),58.1 µM (inactive)
O=C(N/C(=C\c1ccc([N+](=O)[O-])cc1)c1nc2c(O)nc(S)nc2[nH]1)c1ccccc1,92.3 µM (inactive),> 100 µM (inactive),> 100 µM (inactive),> 100,,> 100 µM (inactive),73.1 µM (inactive),65.2 µM (inactive),> 100 µM (inactive),57.1 µM (inactive),,> 100 µM (inactive),> 100 µM (inactive),> 100 µM (inactive),> 100 µM (inactive),,,> 100 µM (inactive)
O=c1c2ccccc2c(=O)n2n1-c1cccc(c1)CSSCc1cccc-2c1,> 10 µM (inactive),> 10 µM (inactive),> 10 µM (inactive),> 10,> 10 µM (inactive),> 10 µM (inactive),> 10 µM (inactive),> 10 µM (inactive),> 10 µM (inactive),> 10 µM (inactive),> 10 µM (inactive),> 100 µM (inactive),> 10 µM (inactive),52.8 µM (inactive),> 10 µM (inactive),> 10 µM (inactive),> 10 µM (inactive),> 10 µM (inactive)
Nc1ccc(C(=O)N/C(=C\C=C\c2ccco2)c2nc3c4c(ccc3[nH]2)C(=O)c2ccccc2C4=O)cc1,1.09 µM (active),61.1 µM (inactive),28.1 µM (inactive),31.9,56.2 µM (inactive),21.4 µM (inactive),26.8 µM (inactive),49.1 µM (inactive),85.9 µM (inactive),15.8 µM (inactive),3.21 µM (inactive),25.2 µM (inactive),36.6 µM (inactive),21.7 µM (inactive),39.7 µM (inactive),14.2 µM (inactive),24.8 µM (inactive),> 100 µM (inactive)
CN(C)CCNC(=O)c1c2ccccc2cc2ccccc12,31.1 µM (inactive),18.2 µM (inactive),> 100 µM (inactive),36,55.7 µM (inactive),41 µM (inactive),23.2 µM (inactive),26.2 µM (inactive),34.1 µM (inactive),,17.5 µM (inactive),25.3 µM (inactive),25.5 µM (inactive),> 100 µM (inactive),> 100 µM (inactive),42.9 µM (inactive),26.8 µM (inactive),50.9 µM (inactive)
